Experimental findings from patent US12257225B2, “Polyoxometalate complexes and pharmaceutical compositions” (Emory University, priority 2016, dated 2025) are described below.

What is called IC50 is the concentration that inhibits the measured activity by half. A lower IC50 goes with higher potency.

Where “and” joins values, the source holds several entries; their conditions need not be identical. Equal entries are not always repeated. Entries after “also recorded” stand apart in the source; their conditions may differ.

In series [1] the test system is KB-CP.5 cancer cells. In words: Apoptosis of cisplatin-resistant KB-CP.5 cancer cells. The class given is cell-based, human. The protocol: Apoptosis was measured after cells treated with VPOA-6 at different concentrations for 48 hr. […] NAC rescues the VPOA-6-induced apoptosis in KB-CP.5 cancer cells. Cancer cells were cultured with VPOA-6 (5 or 10 μM) with or without ROS scavenging agent NAC (3 mM) for 48 hr before apoptosis measurement.

For series [2], the system named is KB-3-1 cancer cells. In words: Apoptosis of KB-3-1 cancer cells. The class given is cell-based, human. The protocol:
Apoptosis was measured after cancer cells were treated with the drug for 48 hr. […] Cancer cells were cultured with VPOA-6 (5 or 10 μM) with or without NAC (3 mM) for 48 hr before apoptosis measurement.

The subject of series [3] is KB-3-1 cells. The series can be described thus: Total cellular ROS by flow cytometry, KB-3-1. The class given is cell-based, human. The source says: Transition-metal-based polyoxoanions sometimes have the ability to catalyze a range of oxidation reactions and to generate the free radicals under mild conditions. Although it is not intended that embodiments of this disclosure be limited by any particular mechanism, it is quite reasonable that VPOA-6 may enhance the production or accumulation of reactive oxygen species (ROS) in cancer cells leading to oxidative stress and cell death. To test this hypothesis, the levels of total cellular ROS (H2O2) were measured using flow cytometry. […] To assess the functional importance of ROS induction in the VPOA-6-treated KB-3-1 cells, cells were co-treated with both VPOA-6 (5 and 10 μM) and a ROS scavenger N-acetyl-L-cysteine (NAC, 3 mM).
(A flow cytometer gives signals particle by particle.)

Series [4] concerns normal proliferating cells. In words: Selective killing of cancer versus normal proliferating cells. The note with it: for activity and selectivity, KB-3-1 versus normal cells: simple vanadium compounds. The class given is cell-based. On the procedure: (§1) A variety of cancer or normal cells were grown in 96-well plates and treated with VPOA-6 at 0-20 μM for 72 h. Cytotoxicity was measured using cell counting kit-8.
The effect of VPOA-6 on the viability of a spectrum of cancer cells and normal proliferating cells were then evaluated. […] In particular, four major types of human cancer cell lines, A549 (lung), U87 (brain), SKOV-3 (ovarian), and KB-3-1 (cervical), are highly sensitive to VPOA-6 with IC50 values below 5 μM.

The test system of series [5] is KB-3-1 cancer cell line. In words: Cytotoxicity, cell counting kit-8, KB-3-1. The class given is cell-based, human. The note with it: KB-3-1 cells, 72 h. The protocol: as §1
The effective catalytic oxidation of cellular antioxidants by VPOA-6, led to an assessment of the viability of both cancer and normal cell lines in the presence of VPOA-6. Four VPOA analogues (FIG. 1B) for selectivity of VPOA-6 in killing cancer cells by cytotoxicity towards the fast-growing KB-3-1 cancer cell line.
(§2) Cell lines used in this study are as follows.

Series [6] relates to SKOV-3, ovarian carcinoma cell. In words: Cytotoxicity, cell counting kit-8, SKOV-3. The class given is cell-based, human. The note with it: SKOV-3 cells, 72 h. On the procedure: as §1, §2
The subject of series [7] is KB-CP.5, cisplatin-resistant cervical carcinoma cell. The series can be described thus: Cytotoxicity, cell counting kit-8, KB-CP.5. The class given is cell-based, human. The protocol:
as §1
(§3) The high incidence of drug resistance is a major challenge in treatment of relapsed and refractory cancers. […] The resistance of tumor cells to platinum-based chemotherapeutics is known to be associated with increased GSH levels; whereas cancer cells with high GSH levels are frequently more sensitive to drugs that affect GSH43.
as §2
In general terms: Tetrazolium assays rely on reduction of a dye to a coloured formazan, in cell work by metabolically active cells.

The test system of series [8] is KB-3-1 human cervical carcinoma. In words: KB-3-1 xenograft mouse model, antitumor efficacy. The class given is in vivo, mice. Particulars: for tumor inhibition effect: 16 μmol/kg i.p. The source says:
In vivo antitumor effect of VPOA-6. Inhibition of human head-and-neck KB-3-1 tumor growth by VPOA-6 treatment in tumor-bearing mice. […] Mice were then euthanized, vital organs collected and processed for histological examination.
Human cervical cancer is one of the most aggressive forms of human cancer. […] Specifically when using i.p. administration, the tumor volume of VPOA-6-treated group at a dose of 40 μmol/kg was less than 40% of that control group at the end point. […] Evaluation of VPOA-6 side effects. A central issue in developing new chemotherapeutics is to minimize the side effects associated with the non-specific interaction of the drugs with normal organ tissues.

Series [9] in a line: Side effects in treated tumor-bearing mice. The class given is in vivo. The source says:
Mice were then euthanized, vital organs collected and processed for histological examination.

Series [10] concerns cancer cells.
The conditions of series [11]: pH 7.4.
The subject of series [12] is KB-8-5, multi-drug resistant cervical carcinoma cell. The series can be described thus: Cytotoxicity, cell counting kit-8, KB-8-5. The note with it: KB-8-5 cells, 72 h. The class given is cell-based, human. The protocol: as §1, §3, §2
Series [13] concerns cancer cells. The series can be described thus: Uptake into living cells by fluorescent labeling. The class given is cell-based. Particulars: 1 μM. The protocol: (§4) One aspect of selectivity is the efficacy ratio of a therapeutic agent for normal cells versus cancer cells. In sharp contrast to cancer cells, human embryonic kidney HEK 293, human lung MRC-5, and human bronchus BEAS-2B normal cells are viable at VPOA-6 concentrations up to 20 μM. […] A fluorescent-labeling technique successfully images the uptake of VPOA-6 into living cells showing that cancer cells readily internalize this nanodrug within 8 hr even at very low concentrations (1 μM).

Series [14] in a line: Catalysis of ascorbic acid oxidation. The class given is biochemical. The note with it: air or peroxide, physiological conditions.
Series [15] has as its system normal cells.
For series [16], the system named is NCI-H460, large cell lung carcinoma. The series can be described thus: Cytotoxicity, cell counting kit-8, NCI-H460. The class given is cell-based, human. The note with it: NCI-H460 cells, 72 h. On the procedure: as §1, §2
The subject of series [17] is cancer cells. The series can be described thus: TUNEL and Annexin V-PE staining assays. The class given is cell-based. Particulars: normal proliferating cells remain alive. The protocol: as §4
Series [18] can be described thus: Catalysis of glutathione oxidation monitored by 1H NMR. The class given is biochemical. The protocol: GSH (10 mM) in deuterated PBS (1×, pH 7.4) solution at 37° C. in a cell culture incubator. The arrow on the top spectrum indicates the chemical shift of a dominant peak (absent here) in the oxidation product (GSSG).
Vanadium-containing compounds have extensive redox properties and consequently catalyze several organic substrate oxidations via free radical mechanisms. VPOA-6 is a highly efficient catalyst for oxidizing glutathione (GSH), the primary intracellular antioxidant, through both aerobic oxidation and peroxidation under physiologically relevant conditions. Glutathione is the most abundant cellular reducing metabolite with concentrations in the millimolar range and is regarded as the primary mechanism for protecting cells against oxidative stress during proliferation and growth. In order to evaluate the inherent catalytic capability of VPOA-6, proton nuclear magnetic resonance (1H NMR) spectroscopy was used to monitor the in vitro oxidation of GSH. Two reactions were designed for this purpose, GSH reacting with air (O2) and, separately, GSH reacting with peroxide (H2O2) in PBS buffer (1×pH 7.4) at 37° C.

The subject of series [19] is OVCAR-3, ovarian carcinoma. The series can be described thus: Cytotoxicity, cell counting kit-8, OVCAR-3. The class given is cell-based, human. The note with it: OVCAR-3 cells, 72 h. The protocol: as §1, §2
Series [20] has as its system D556, medulloblastoma cell. In words: Cytotoxicity, cell counting kit-8, D556. The class given is cell-based. Particulars: D556 cells, 72 h. On the procedure:
as §1, §2

The test system of series [21] is human embryonic kidney HEK 293. The class given is cell-based. The protocol:
as §1
One aspect of selectivity is the efficacy ratio of a therapeutic agent for normal cells versus cancer cells.
as §2

The test system of series [22] is KB-CP.5 cancer cell. The series can be described thus: ROS in drug-resistant KB-CP.5 cells. The class given is cell-based, human.

In the case of `CC(=O)N[C@@H](CS)C(=O)O` [NAC, N-acetyl-L-cysteine, reference compound], the “effect of NAC on VPOA-6-induced apoptosis” value was “rescues” in series [1] (KB-CP.5, VPOA-6 5 or 10 μM, NAC 3 mM, 48 hr) and “rescues” in [2] (KB-3-1, VPOA-6 5 or 10 μM, NAC 3 mM, 48 hr). The “effect of NAC on ROS and cell killing by VPOA-6” value in [3] (KB-3-1, VPOA-6 5 and 10 μM, NAC 3 mM) is “reduces ROS and the cell killing by VPOA-6”.

As for `[Na+].[Na+].[Na+].[O]=[V]([O-])([O-])[O-]` [Na3VO4], the “activity and selectivity, KB-3-1 versus normal cells” value (shortened to “activity and selectivity”) in series [4] was “active but nonselective”.

In the case of `[Na+].[O]=[V](=[O])[O-]` [NaVO3], the “activity and selectivity” value in [4] is “active but nonselective”.

Regarding `CCCC[N+](CCCC)(CCCC)CCCC` [TBA Cl, reference compound], in series [5], half-maximal inhibition (IC50) required 289 ± 12 µM.

Take `[O]=[V](=[O])[O][V](=[O])=[O]` [V2O5]: the “activity and selectivity” value in series [4] is “active but nonselective”.

Take `N.N.[Cl][Pt][Cl]` [cisplatin, reference compound]: the IC50 in series [6] worked out at 4.4 µM; in [5] it was 2.8 µM. For the same compound, the “resistance of KB-CP.5 compared to parental KB-3-1” value in series [7] (KB-CP.5 versus KB-3-1) is given as “ca. 40 fold”. Moreover, the tumor inhibition effect result in series [8] (weekly for 24 days) was “did not exhibit any tumor inhibition effect”. Also, in series [9] (increased dosages), the mortality entry is recorded as “widespread death”. In [9] (treatment period), the “health and body weight of treated mice” value is “deteriorated health and severe body weight loss”.

For `OO` [hydrogen peroxide], in [10], the “interaction with VPOA-6 in killing cancer cells” value was “acted synergistically with VPOA-6”.

In [5], [V6O13{(OCH2)3CCH2OH}2] [VPOA-OH] came in with an IC50 of 21 ± 1.47 µM.

Consider [V6O13{(OCH2)3CCH3}2] [VPOA-CH3], for which, in series [5], the half-maximal inhibitory concentration (IC50) came out at 16.21 ± 0.08 µM.

As for [V6O13{(OCH2)3CNH3}2] [VPOA-6], the IC50 in series [6] was 3.12 ± 0.05 µM; in series [5] it was 3.45 µM and < 5 µM; in [7] (KB-CP.5 cells, 72 h) it was 5.53 µM; in series [12], 3.7 µM; in series [16], 8.69 ± 0.91 µM; in series [19], 10.8 ± 0.49 µM. In addition, 7.36 ± 0.54 µM corresponded to half-maximal inhibition in series [20] (IC50). The “selective killing: cytotoxicity in cancer versus normal proliferating cells” value in series [4] (0-20 μM, 72 h) was “no cytotoxicity in normal proliferating cells; also recorded: induces cell death in cancer cells (Tumor) but not in normal proliferating cells (Normal)”. In series [11], the stability entry is given as “stable”. Also, the “time to internalization by cancer cells” value in [13] was no more than 8 h. Moreover, the “catalysis of ascorbic acid oxidation” value in series [14] is reported as “efficiently catalyzes ascorbic acid oxidation”. The “ROS and apoptosis in normal cells” value in [15] is “ROS increase but did not show obvious apoptosis”. Also, in series [8] (weekly for 24 days), the tumor inhibition effect result is given as “clearly demonstrated the antitumor effect”. In addition, the “tumor volume relative to control group at the end point” value in series [8] (40 μmol/kg i.p., weekly for 24 days) was “less than 40%”. The “tumor growth inhibition, overall” value in [8] (i.p. or i.v., KB-3-1 xenografted mice) is “significantly inhibits growth; also recorded: quite effective”. Moreover, the tumor inhibition entry in series [8] (i.v. administration) is “more significant tumor inhibition”. Also, the “apoptosis by TUNEL and Annexin V-PE staining” value in series [17] is “dramatic apoptosis of the cancer cells”. The “product of GSH oxidation” value in series [18] (H2O2, PBS pH 7.4, 37° C., after 30 minutes) is recorded as “over-oxidized product, GS(═O)SG”. The “time for conversion of GSH to GSSG” value in series [18] (air, GSH 10 mM, PBS pH 7.4, 37° C.) is no more than 30 min. Moreover, the nephrotoxicity result in [9] (mouse, in vivo) is recorded as “not observed”. In addition, the apoptosis entry is recorded as “remarkable apoptosis” in series [1] (KB-CP.5) and “Dose-dependent apoptosis” in series [2] (KB-3-1, 48 hr). The ROS levels entry in series [3] (KB-3-1, 5 and 10 μM, versus non-treated cells) was “significant surge in ROS levels”; in series [22], “dramatic ROS increase”. For the same compound, the “toxicity in cell viability studies” value in [21] is reported as “much less so”.

In the case of [V6O13{(OCH2)3CNO2}2] [VPOA-NO2], half-maximal inhibition in series [5] (IC50) was put at 13.7 ± 0.15 µM.
